In patent publication US12157741B2, “Macrocyclic inhibitors of DYRK1A” (DANA-FARBER CANCER INSTITUTE, INC., priority 2018, dated 2024):
Read-outs that look alike come from different tables or passages of the source.

Legend:
Assay type in all cases: binding
various enzymes [1] = target: various enzymes (Homo sapiens, UniProt P36896); conditions: compound 1 uM
Method: (§1) Ambit profiling was conducted in accordance with the manufacturer's instructions.

various enzymes [2] = target: T1, various enzymes (Homo sapiens, UniProt Q6PHR2); conditions: compound 1 uM
T1 sequence (Q6PHR2 1-472): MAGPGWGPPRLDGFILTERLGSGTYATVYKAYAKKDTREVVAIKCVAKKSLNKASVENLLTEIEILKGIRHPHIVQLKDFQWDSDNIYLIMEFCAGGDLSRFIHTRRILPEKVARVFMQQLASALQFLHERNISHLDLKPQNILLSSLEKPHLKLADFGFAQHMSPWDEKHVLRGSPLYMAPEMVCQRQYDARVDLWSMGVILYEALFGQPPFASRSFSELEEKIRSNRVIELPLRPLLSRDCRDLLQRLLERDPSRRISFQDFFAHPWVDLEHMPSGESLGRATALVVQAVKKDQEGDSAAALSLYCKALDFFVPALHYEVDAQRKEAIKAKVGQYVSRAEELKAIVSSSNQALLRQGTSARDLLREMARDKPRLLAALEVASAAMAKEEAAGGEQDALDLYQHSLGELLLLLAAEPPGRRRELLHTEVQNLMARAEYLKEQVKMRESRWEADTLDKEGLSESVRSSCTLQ
Method: as §1

various enzymes [3] = target: various enzymes (Homo sapiens, UniProt Q9BZL6); conditions: compound 1 uM
Method: as §1

various enzymes [4] = target: various enzymes (Homo sapiens, UniProt Q9H2K8); conditions: compound 1 uM
Method: as §1

various enzymes [5] = target: various enzymes (Homo sapiens, UniProt P53779); conditions: compound 1 uM
Method: as §1

various enzymes [6] = target: various enzymes (Homo sapiens, UniProt P20794); conditions: compound 1 uM
Method: as §1

various enzymes [7] = target: T2, various enzymes (Homo sapiens, UniProt O60285); conditions: compound 1 uM
T2 sequence (O60285 1-661): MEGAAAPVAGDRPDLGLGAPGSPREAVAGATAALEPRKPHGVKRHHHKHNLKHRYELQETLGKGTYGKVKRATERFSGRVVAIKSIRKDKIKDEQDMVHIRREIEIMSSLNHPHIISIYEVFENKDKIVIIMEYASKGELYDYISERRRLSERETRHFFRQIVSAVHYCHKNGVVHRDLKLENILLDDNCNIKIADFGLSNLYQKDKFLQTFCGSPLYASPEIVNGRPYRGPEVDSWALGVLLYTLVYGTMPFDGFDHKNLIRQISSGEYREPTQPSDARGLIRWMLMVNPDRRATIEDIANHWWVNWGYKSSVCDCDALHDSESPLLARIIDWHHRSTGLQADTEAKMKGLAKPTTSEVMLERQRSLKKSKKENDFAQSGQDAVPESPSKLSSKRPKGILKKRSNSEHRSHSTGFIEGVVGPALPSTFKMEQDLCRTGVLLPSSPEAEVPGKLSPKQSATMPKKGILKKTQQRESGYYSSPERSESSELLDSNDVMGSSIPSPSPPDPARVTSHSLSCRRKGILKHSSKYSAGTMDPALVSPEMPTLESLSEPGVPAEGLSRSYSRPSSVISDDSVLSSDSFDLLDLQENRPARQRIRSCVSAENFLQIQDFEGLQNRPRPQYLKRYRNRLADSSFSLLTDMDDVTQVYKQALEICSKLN
Method: as §1

various enzymes [8] = target: various enzymes (Homo sapiens, UniProt Q9Y6E0); conditions: compound 1 uM
Method: as §1

various enzymes [9] = target: various enzymes (Homo sapiens, UniProt P00519, F317L); conditions: compound 1 uM
Method: as §1

various enzymes [10] = target: various enzymes (Homo sapiens, UniProt Q86V86); conditions: compound 1 uM
Method: as §1

various enzymes [11] = target: various enzymes (Homo sapiens, UniProt Q8TD08); conditions: compound 1 uM
Method: as §1

various enzymes [12] = target: various enzymes (Homo sapiens, UniProt P00519, E255K)
Method: as §1

various enzymes [13] = target: various enzymes (Homo sapiens, UniProt P16591); conditions: compound 1 uM
Method: as §1

various enzymes [14] = target: various enzymes (Homo sapiens, UniProt Q8N4C8); conditions: compound 1 uM
Method: as §1

various enzymes [15] = target: various enzymes (Homo sapiens, UniProt Q9HBY8); conditions: compound 1 uM
Method: as §1

various enzymes [16] = target: various enzymes (Homo sapiens, UniProt P35626); conditions: compound 1 uM
Method: as §1

various enzymes [17] = target: various enzymes (Homo sapiens, UniProt Q9UK32); conditions: compound 1 uM
Method: as §1

various enzymes [18] = target: various enzymes (Homo sapiens, UniProt P43405); conditions: compound 1 uM
Method: as §1

various enzymes [19] = target: various enzymes (Homo sapiens, UniProt Q00537); conditions: compound 1 uM
Method: as §1

various enzymes [20] = target: various enzymes (Homo sapiens, UniProt Q09013); conditions: compound 1 uM
Method: as §1

various enzymes [21] = target: various enzymes (Homo sapiens, UniProt P54764); conditions: compound 1 uM
Method: as §1

various enzymes [22] = target: various enzymes (Homo sapiens, UniProt P11802); conditions: compound 1 uM
Method: as §1

various enzymes [23] = target: various enzymes (Homo sapiens, UniProt P57078); conditions: compound 1 uM
Method: as §1

various enzymes [24] = target: various enzymes (Homo sapiens, UniProt Q92918); conditions: compound 1 uM
Method: as §1

various enzymes [25] = target: various enzymes (Homo sapiens, UniProt O15530); conditions: compound 1 uM
Method: as §1

various enzymes [26] = target: various enzymes (Homo sapiens, UniProt Q9UHD2); conditions: compound 1 uM
Method: as §1

various enzymes [27] = target: various enzymes (Homo sapiens, UniProt Q9H4A3); conditions: compound 1 uM
Method: as §1

various enzymes [28] = target: various enzymes (Homo sapiens, UniProt Q59H18); conditions: compound 1 uM
Method: as §1

Sequence of various enzymes (Homo sapiens, UniProt P11802) (P11802 whole entry): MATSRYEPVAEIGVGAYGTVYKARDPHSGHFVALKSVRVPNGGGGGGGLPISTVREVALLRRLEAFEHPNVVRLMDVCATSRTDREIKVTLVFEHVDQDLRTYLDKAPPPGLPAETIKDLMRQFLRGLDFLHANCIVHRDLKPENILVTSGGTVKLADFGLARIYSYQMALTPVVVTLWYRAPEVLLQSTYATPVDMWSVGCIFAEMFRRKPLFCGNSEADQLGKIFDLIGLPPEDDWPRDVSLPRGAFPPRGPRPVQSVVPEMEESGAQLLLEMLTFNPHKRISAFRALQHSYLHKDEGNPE
Sequence of various enzymes (Homo sapiens, UniProt P00519, F317L) (P00519 whole entry F317L): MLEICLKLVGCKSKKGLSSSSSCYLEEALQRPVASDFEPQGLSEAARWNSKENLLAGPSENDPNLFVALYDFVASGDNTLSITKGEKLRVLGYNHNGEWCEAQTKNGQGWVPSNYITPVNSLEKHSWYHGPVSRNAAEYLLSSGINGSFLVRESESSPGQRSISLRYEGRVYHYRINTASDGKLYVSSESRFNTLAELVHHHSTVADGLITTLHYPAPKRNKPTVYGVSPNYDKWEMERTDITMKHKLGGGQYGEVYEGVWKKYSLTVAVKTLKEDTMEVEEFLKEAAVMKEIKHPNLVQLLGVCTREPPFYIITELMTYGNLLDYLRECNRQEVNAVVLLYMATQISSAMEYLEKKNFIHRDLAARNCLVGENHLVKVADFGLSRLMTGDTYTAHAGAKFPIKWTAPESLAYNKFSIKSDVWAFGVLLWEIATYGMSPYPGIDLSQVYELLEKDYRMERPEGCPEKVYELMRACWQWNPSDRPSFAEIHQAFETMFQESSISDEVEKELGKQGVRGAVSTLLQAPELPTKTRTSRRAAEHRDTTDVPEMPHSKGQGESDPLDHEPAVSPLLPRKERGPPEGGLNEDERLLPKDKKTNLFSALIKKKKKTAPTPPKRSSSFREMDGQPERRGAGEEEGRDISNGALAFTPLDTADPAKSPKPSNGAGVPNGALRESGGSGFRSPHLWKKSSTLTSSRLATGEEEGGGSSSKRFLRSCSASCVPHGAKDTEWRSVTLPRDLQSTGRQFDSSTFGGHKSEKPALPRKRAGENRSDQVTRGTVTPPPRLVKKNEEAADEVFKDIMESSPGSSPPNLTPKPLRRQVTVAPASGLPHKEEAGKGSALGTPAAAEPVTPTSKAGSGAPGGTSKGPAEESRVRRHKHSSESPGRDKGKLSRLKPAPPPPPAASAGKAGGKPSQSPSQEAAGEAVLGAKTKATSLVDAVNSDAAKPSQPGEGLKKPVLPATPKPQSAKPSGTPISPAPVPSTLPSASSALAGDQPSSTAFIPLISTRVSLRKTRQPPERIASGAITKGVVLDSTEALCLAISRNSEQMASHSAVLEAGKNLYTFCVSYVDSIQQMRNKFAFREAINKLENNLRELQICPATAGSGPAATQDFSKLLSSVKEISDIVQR
Sequence of various enzymes (Homo sapiens, UniProt Q9UK32) (Q9UK32 whole entry): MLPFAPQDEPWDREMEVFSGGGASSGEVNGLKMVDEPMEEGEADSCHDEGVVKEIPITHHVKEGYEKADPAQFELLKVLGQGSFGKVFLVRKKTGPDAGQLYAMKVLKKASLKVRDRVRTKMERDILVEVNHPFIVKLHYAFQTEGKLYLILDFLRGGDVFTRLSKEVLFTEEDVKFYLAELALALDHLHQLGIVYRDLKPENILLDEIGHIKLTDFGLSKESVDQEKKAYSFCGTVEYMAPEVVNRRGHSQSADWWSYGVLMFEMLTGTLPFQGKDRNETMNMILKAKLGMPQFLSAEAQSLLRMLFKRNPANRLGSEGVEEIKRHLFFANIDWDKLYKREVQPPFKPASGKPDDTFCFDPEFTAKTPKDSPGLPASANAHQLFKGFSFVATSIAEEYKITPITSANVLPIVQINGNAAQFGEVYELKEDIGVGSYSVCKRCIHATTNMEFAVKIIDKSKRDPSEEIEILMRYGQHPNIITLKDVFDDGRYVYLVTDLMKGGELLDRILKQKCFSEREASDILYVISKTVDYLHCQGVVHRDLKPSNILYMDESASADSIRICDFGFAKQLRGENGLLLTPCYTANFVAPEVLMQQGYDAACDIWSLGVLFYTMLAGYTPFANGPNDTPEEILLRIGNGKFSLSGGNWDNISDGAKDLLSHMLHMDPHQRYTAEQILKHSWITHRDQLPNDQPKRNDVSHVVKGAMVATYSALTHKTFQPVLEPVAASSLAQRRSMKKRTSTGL
Sequence of various enzymes (Homo sapiens, UniProt P00519, E255K) (P00519 whole entry E255K): as the sequence (P00519 whole entry F317L) above, with E255K, L317F counted along it
Sequence of various enzymes (Homo sapiens, UniProt P57078) (P57078 whole entry): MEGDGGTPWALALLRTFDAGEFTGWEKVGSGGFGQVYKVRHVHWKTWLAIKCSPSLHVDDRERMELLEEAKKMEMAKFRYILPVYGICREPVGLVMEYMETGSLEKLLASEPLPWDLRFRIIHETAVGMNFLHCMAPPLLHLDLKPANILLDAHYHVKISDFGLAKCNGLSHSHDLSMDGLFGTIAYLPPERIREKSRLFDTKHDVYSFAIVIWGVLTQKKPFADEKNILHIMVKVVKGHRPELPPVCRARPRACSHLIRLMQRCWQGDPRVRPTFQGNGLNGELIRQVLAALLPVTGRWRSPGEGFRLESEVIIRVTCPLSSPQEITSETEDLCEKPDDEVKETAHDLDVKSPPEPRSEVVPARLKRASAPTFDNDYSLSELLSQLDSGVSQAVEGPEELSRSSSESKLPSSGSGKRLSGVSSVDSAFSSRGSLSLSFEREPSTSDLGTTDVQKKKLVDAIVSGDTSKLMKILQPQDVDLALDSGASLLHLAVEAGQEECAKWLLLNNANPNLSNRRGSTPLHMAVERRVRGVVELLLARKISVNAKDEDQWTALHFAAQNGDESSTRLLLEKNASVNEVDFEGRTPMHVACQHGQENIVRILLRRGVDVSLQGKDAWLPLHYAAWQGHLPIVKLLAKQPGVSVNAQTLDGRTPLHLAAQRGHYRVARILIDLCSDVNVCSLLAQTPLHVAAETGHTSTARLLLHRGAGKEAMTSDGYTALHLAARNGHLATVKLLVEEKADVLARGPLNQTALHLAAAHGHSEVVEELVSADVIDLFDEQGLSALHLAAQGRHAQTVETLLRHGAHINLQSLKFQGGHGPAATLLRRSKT
Sequence of various enzymes (Homo sapiens, UniProt Q92918) (Q92918 whole entry): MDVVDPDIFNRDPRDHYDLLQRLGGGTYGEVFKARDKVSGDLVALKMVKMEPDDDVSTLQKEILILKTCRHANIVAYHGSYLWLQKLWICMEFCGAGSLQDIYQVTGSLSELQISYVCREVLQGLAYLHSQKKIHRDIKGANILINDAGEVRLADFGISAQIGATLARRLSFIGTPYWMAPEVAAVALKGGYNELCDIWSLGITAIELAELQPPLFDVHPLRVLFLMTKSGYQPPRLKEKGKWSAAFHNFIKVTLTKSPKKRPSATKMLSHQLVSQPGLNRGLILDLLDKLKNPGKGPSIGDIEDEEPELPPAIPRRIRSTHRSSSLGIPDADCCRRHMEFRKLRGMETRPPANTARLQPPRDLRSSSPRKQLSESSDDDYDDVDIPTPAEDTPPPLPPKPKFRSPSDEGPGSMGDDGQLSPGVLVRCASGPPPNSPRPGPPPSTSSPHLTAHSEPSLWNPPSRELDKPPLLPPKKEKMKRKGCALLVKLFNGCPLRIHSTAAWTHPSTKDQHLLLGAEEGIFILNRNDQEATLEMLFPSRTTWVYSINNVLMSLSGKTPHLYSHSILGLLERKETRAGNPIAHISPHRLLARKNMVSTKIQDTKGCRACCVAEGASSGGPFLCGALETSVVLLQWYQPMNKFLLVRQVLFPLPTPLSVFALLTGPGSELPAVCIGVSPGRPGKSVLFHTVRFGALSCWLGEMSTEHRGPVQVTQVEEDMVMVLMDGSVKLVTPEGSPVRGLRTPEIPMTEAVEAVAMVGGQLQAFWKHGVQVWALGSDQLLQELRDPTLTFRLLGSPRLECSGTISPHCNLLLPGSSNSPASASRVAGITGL
Sequence of various enzymes (Homo sapiens, UniProt P54764) (P54764 20-986): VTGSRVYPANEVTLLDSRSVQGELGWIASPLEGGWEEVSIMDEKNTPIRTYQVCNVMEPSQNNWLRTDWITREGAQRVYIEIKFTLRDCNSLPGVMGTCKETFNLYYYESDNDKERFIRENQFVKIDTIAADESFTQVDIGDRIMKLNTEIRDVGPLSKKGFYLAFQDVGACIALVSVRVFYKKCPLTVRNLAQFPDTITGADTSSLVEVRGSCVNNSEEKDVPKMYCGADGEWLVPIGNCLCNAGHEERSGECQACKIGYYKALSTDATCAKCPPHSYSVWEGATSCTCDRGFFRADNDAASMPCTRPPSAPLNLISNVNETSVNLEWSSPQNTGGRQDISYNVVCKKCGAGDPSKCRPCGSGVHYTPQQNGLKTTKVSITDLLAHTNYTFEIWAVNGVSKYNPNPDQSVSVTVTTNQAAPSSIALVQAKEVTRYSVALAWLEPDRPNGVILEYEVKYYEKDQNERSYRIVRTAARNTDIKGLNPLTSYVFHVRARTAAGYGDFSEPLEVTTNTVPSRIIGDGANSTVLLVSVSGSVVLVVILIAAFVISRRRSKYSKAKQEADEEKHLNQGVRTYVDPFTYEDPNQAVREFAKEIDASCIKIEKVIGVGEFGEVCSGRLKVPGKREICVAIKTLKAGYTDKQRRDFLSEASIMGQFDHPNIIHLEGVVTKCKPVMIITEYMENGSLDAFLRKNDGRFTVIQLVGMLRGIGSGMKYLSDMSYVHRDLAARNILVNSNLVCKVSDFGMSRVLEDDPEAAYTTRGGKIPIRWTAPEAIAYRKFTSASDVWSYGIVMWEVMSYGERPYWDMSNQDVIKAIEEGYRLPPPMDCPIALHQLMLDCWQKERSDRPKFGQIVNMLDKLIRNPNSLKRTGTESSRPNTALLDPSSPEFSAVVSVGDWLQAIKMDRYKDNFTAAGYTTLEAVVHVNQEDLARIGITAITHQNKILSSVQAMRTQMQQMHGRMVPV

Row | SMILES | Ambit profiling: ACVR1B (various enzymes [1]) | Ambit profiling: ULK3 (various enzymes [2]) | Ambit profiling: PRKD2 (various enzymes [3]) | Ambit profiling: TAOK3 (various enzymes [4]) | Ambit profiling: JNK3 (various enzymes [5]) | Ambit profiling: MAK (various enzymes [6]) | Ambit profiling: ARK5 (various enzymes [7]) | Ambit profiling: MST3 (various enzymes [8]) | Ambit profiling: ABL1(F317L)-nonphosphorylated (various enzymes [9]) | Ambit profiling: ABL1(F317L)-phosphorylated (various enzymes [9]) | Ambit profiling: PIM3 (various enzymes [10]) | Ambit profiling: ERK8 (various enzymes [11]) | Ambit profiling: FER (various enzymes [13]) | Ambit profiling: MINK (various enzymes [14]) | Ambit profiling: SGK2 (various enzymes [15]) | Ambit profiling: GRK3 (various enzymes [16]) | Ambit profiling: RSK4(Kin.Dom.1-N-terminal) (various enzymes [17]) | Ambit profiling: RSK4(Kin.Dom.2-C-terminal) (various enzymes [17]) | Ambit profiling: SYK (various enzymes [18]) | Ambit profiling: PCTK2 (various enzymes [19]) | further results
1 | CC(C)N1Cc2nn(C)cc2-c2cnc3[nH]cc(c3c2)-c2cn(nc2C(F)(F)F)CCCC1=O [Compound 45, (Z)-5-isopropyl-31-methyl-13-(trifluoromethyl)-11H,21H,31H-5-aza-2(3,5)-pyrrolo[2,3-b]pyridina-1(4,1),3(4,3)-dipyrazolacyclononaphan-6-one] | 89 | 30 | 43 | 22 | 29 | 34 | 100 | 57 | 55 | 25 | 94 | 6.1 | 49 | 1.8 | 23 | 100 | 2.6 | 95 | 35 | 19 | Ambit profiling: ABL1(E255K)-phosphorylated (various enzymes [12]; compound 1 uM): 7.7; Ambit profiling: DMPK (various enzymes [20]): 20; Ambit profiling: EPHA4 (various enzymes [21]): 88; Ambit profiling: CDK4 (various enzymes [22]): 100; Ambit profiling: CDK4-cyclinD1 (various enzymes [22]): 53; Ambit profiling: CDK4-cyclinD3 (various enzymes [22]): 100; Ambit profiling: RIPK4 (various enzymes [23]): 100; Ambit profiling: HPK1 (various enzymes [24]): 5.9; Ambit profiling: PDPK1 (various enzymes [25]): 98; Ambit profiling: TBK1 (various enzymes [26]): 0; Ambit profiling: WNK1 (various enzymes [27]): 100; Ambit profiling: TNNI3K (various enzymes [28]): 72
2 | COc1c2c(nn1C)CN(C(C)C)C(=O)CCCn1cc(c(C(F)(F)F)n1)-c1c[nH]c3ncc-2cc13 [Compound 50, (Z)-5-isopropyl-35-methoxy-31-methyl-13-(trifluoromethyl)-11H,21H,31H-5-aza-2(3,5)-pyrrolo[2,3-b]pyridina-1(4,1),3(4,3)-dipyrazolacyclononaphan-6-one] | 57 | 73 | 55 | 63 | 8.8 | 77 | 100 | 63 | 35 | 2.5 | 91 | 18 | 10 | 0 | 59 | 85 | 2.3 | 74 | 26 | 56 | Ambit profiling: ABL1(E255K)-phosphorylated (various enzymes [12]): 2; Ambit profiling: DMPK (various enzymes [20]): 100; Ambit profiling: EPHA4 (various enzymes [21]): 63; Ambit profiling: CDK4 (various enzymes [22]): 88; Ambit profiling: CDK4-cyclinD1 (various enzymes [22]): 76; Ambit profiling: CDK4-cyclinD3 (various enzymes [22]): 81; Ambit profiling: RIPK4 (various enzymes [23]): 85; Ambit profiling: HPK1 (various enzymes [24]): 0; Ambit profiling: PDPK1 (various enzymes [25]): 100; Ambit profiling: TBK1 (various enzymes [26]): 3.8; Ambit profiling: WNK1 (various enzymes [27]): 100; Ambit profiling: TNNI3K (various enzymes [28]): 72
